Results: publication PMC10541456, “A phase I, single‐center, open‐label study to investigate the absorption, distribution, metabolism and excretion of encorafenib following a single oral dose of 100 mg [ ^14C] encorafenib in healthy male subjects” (Pharmacology Research & Perspectives, 2023)
“And” between values parts separate entries of the source, which are not always exact repeats. Identical values can stand only once. Like-named read-outs stand apart in the source and are kept apart here.

Assays:
[1] = Total radioactivity PK in whole blood; format: in vivo, human
Procedure: Venous blood samples (18 mL/time point) were collected by either direct venipuncture or from an indwelling cannula inserted into a vein of the forearm into tubes containing potassium ethylene diamine tetra acetic acid (K2‐EDTA) at the following times for metabolite characterization, total radioactivity and parent drug analysis: Pre‐dose, 0.5, 1, 1.5, 2, 3, 4, 6, 8, 12, 24, 48, 72, 96, 120 and 144 h post‐dose. Urine samples were collected into pre‐weighed, uniquely labeled containers pre‐dose (before drug administration) and at the following intervals: 0–4, 4–8, 8–24, 24–48, 48–72, 72–96, 96–120 and 120–144 h post‐dose. Feces samples were collected quantitatively into uniquely labeled, polypropylene containers pre‐dose (before drug administration) and individually until 144 h post‐dose. Urine and feces samples were frozen at −20°C and blood samples at −70°C.
Analysis of total radioactivity data in plasma, blood, feces, and urine was performed by Covance Laboratories Inc. All sample combustions were performed in a Model 307 Sample Oxidizer (Packard Instrument Company) and the resulting ^14CO2 was trapped in a mixture of Perma Fluor™ (Perkin Elmer) and Carbo Sorb® (Perkin Elmer). Oxidation efficiency was evaluated on each day of sample combustion by analyzing a commercial radiolabeled standard both directly in a scintillation cocktail and by oxidation. […] EcoLite™(+) scintillation cocktail was used for samples analyzed directly. All samples were analyzed for radioactivity in Model 2900TR or 2910TR liquid scintillation counters (Packard Instrument Company) for at least 5 min or 100 000 counts. Each sample was homogenized or mixed before radioanalysis (unless the entire sample was used for analysis). All samples were analyzed in duplicate or triplicate, as applicable, if sample size allowed. If results from sample replicates (calculated as ^14C disintegrations per minute (dpm)/g sample) differed by more than 10% from the mean value and sample aliquots had radioactivity greater than 200 dpm, the sample was re‐homogenized or remixed and reanalyzed (if the sample size permitted).
Blood samples were mixed and duplicate aliquots of each (approximately 0.4 g) were combusted and analyzed by liquid scintillation […]. Plasma and urine samples were separately mixed and duplicate weighed aliquots of each (approximately 0.4 g for plasma and 0.2 g for urine) were analyzed directly by LSC. Urine volumes provided by the Covance clinical research unit were entered as a weight assuming a specific gravity of 1 g/mL. Feces samples were analyzed individually (samples were not combined by interval) and the weight of each individual sample was recorded. A weighed amount of methanol:water (20:80, v:v; approximately 2 to 3 times the sample weight, such that the homogenate weight:sample weight ratio was approximately 3 to 4) was added and the sample was mixed and homogenized using a probe type homogenizer. Triplicate‐weighed aliquots (approximately 0.2 g) were combusted and analyzed by LSC. The empty treatment vial from each subject was analyzed by adding a weighed amount of methanol to each vial and analyzing duplicate weighed aliquots (approximately 0.5 g) of each extract by LSC. Residual radioactivity recovered from each treatment vial was subtracted from the dose administered to the appropriate subject.
The total radioactivity in blood and plasma was determined by LSC. Nominal sampling time points were used for deriving total radioactivity blood and plasma PK data. PK parameters (maximum concentration (C max), time to maximum concentration (T max), terminal half‐life(t 1/2) time to last measurable concentration (T last), area under the curve to the last measurable time point (AUClast), area under the curve extrapolated to infinity (AUCinf)) describing blood and plasma total radioactivity were determined using non‐compartmental methods via WinNonlin® Professional (Version 6.3, Pharsight). […]

[2] = Plasma PK of non-radiolabeled encorafenib; format: in vivo, human; conditions: for Vd/F: read-out: Vz/F
[3] = Safety and tolerability in healthy male subjects; format: in vivo, human
Procedure: This study (ClinicalTrials.gov ID, NCT01436656) was a single‐center, open‐label study to investigate the ADME of encorafenib after a single oral administration of 100 mg (90 μCi) [^14C] encorafenib in healthy male subjects. A total of four evaluable subjects were enrolled and dosed. The study consisted of a screening period, a baseline period, a single dose treatment and a 96 h post‐dose observation period. A safety follow‐up assessment by phone was conducted 30 days after administration of 100 mg (90 μCi) [^14C] encorafenib. Subjects completed an overnight fast of at least 10 h prior to administration of the study drug. Subjects were discharged from the clinical site provided that the subject's recovery of [^14C] encorafenib‐related radioactivity was at least 90% of the administered dose. The study duration period could be prolonged if the subject's recovery of related radioactivity was less than 90% by the fifth‐day post‐treatment or the subject had two consecutive 24‐h combined urine and fecal collections yielding ≥1% of dose.

[4] = system: CYP2D6; design: method as in earlier work; conditions: cited from earlier work
[5] = whole blood, Median (Minimum–Maximum)
[6] = human, plasma, oral, 100 mg, GeoMean (GeoCV%)
[7] = human, plasma, oral, 100 mg, Mean (SD)
[8] = human, plasma, oral, 100 mg, Median (Minimum–Maximum)
[9] = plasma, Median (Minimum–Maximum)
[10] = single 100 mg oral dose, 4 healthy male subjects

[blood]:[plasma] AUC ratio for total radioactivity ([1]; mean): 0.58 | [blood]/[plasma] total radioactivity, 1 to 24 h post-dose ([1]; mean (SD)): 0.59 [0.02] | AUCinf, total radioactivity ([1]; whole blood, Mean (SD)): 8950 (1310) ngEq*h/mL | Cmax, total radioactivity ([1]; whole blood, Mean (SD)): 1330 (103) ngEq/mL | T1/2, total radioactivity ([1]; whole blood, Mean (SD)): 4.8 h and 4.8 (0.48) h | AUCinf, total radioactivity [1, 5]: 8760 (7670–10 600) ngEq*h/mL | Cmax, total radioactivity [1, 5]: 1320 (1230–1460) ngEq/mL | T1/2, total radioactivity [1, 5]: 4.6 (4.5–5.5) h | Tmax, total radioactivity [1, 5]: 1.0 h | Variability of apparent oral clearance, this study ([2]; healthy subjects, 100 mg): 37% | AUC(0-t) ([2]; human, plasma, oral, 100 mg, plasma, GeoMean (GeoCV%), read-out: AUC0-24): 3680 ng·h/mL | AUC(0-t) ([2]; human, plasma, oral, 100 mg, plasma, GeoMean (GeoCV%), read-out: AUClast): 3720 ng·h/mL | AUC(0-t) ([2]; human, plasma, oral, 100 mg, plasma, Mean (SD), read-out: AUC0-24): 3850 ng·h/mL | AUC(0-t) ([2]; human, plasma, oral, 100 mg, plasma, Mean (SD), read-out: AUClast): 3910 ng·h/mL | Vd/F ([2]; human, plasma, oral, 100 mg, plasma, Mean (SD)): 235 L | AUC(0-t) ([2]; human, plasma, oral, 100 mg, plasma, Median (Minimum–Maximum), read-out: AUC0-24): 3570 ng·h/mL | AUC(0-t) ([2]; human, plasma, oral, 100 mg, plasma, Median (Minimum–Maximum), read-out: AUClast): 3600 ng·h/mL | Vd/F ([2]; human, plasma, oral, 100 mg, plasma, Median (Minimum–Maximum)): 228 L | AUC(0-inf) [2, 6]: 3750 ng·h/mL | Cmax [2, 6]: 1040 ng/mL | half-life [2, 6]: 353 min | Cmax [2, 7]: 1050 ng/mL | half-life [2, 7]: 367 min | AUC(0-inf) [2, 8]: 3610 ng·h/mL | Cmax [2, 8]: 1080 ng/mL | half-life [2, 8]: 379 min | Vd/F ([2]; male, human, plasma, oral, 100 mg, plasma, GeoMean (GeoCV%)): ~226 L | Tmax ([2]; male, human, plasma, oral, 100 mg, plasma, Median (Minimum–Maximum), read-out: Tmax): 46.2 min | AUC(0-inf) ([2]; male, human, plasma, po, 100 mg, Mean (SD), n=4, 100 mg oral): 3940 ng·h/mL | Vz/F ([2]; plasma, GeoMean (GeoCV%)): 226 (32.7) L | CL/F ([2]; plasma, Mean (SD)): 27.9 (9.15) L/h | CL/F [2, 9]: 28.4 (17.1–37.6) L/h | Tmax [2, 9]: 0.767 (0.500–1.00) h
SMILES: COC(=O)N[C@@H](C)CNc1nccc(-c2cn(C(C)C)nc2-c2cc(Cl)cc(NS(C)(=O)=O)c2F)n1 [encorafenib]
Grade 2, 3 or 4 adverse events ([3]; single 100 mg oral dose): No grade 2, 3 or 4 AEs were reported | Subjects with AEs suspected to be related to the study drug [3, 10]: 50.0% | Subjects with at least one adverse event [3, 10]: 75.0% | Laboratory evaluations, vital signs, ECG ([3]; single-dose administration): no significant abnormalities | Overall safety and tolerability ([3]; single-dose administration): safe and well‐tolerated | Contribution of CYP2D6 to metabolism [4]: 1%
